Reference: ChEMBL document CHEMBL2413073, “Efficient construction of novel D-ring modified steroidal dienamides and their cytotoxic activities” (Eur J Med Chem, 2013)
Converted amounts (≈) assume the structure as drawn.

Legend:
MGC-803 [1] = assay: Induction of apoptosis in human MGC803 cells assessed as necrotic cells at 4 uM after 24 hrs by AnnexinV/FITC-propidium iodide staining-based flow cytometry (reference value: 0.2%); format: functional
MGC-803 [2] = assay: Induction of apoptosis in human MGC803 cells assessed as early apoptotic cells at 4 uM after 24 hrs by AnnexinV/FITC-propidium iodide staining-based flow cytometry (reference value: 8.9%); format: functional
MGC-803 [3] = assay: Induction of apoptosis in human MGC803 cells assessed as viable cells at 4 uM after 24 hrs by AnnexinV/FITC-propidium iodide staining-based flow cytometry (reference value: 89.6%); format: functional; details: MGC-803, 24 h, read-out: Activity
MGC-803 [4] = assay: Induction of apoptosis in human MGC803 cells assessed as viable cells at 2 uM after 24 hrs by AnnexinV/FITC-propidium iodide staining-based flow cytometry (reference value: 89.6%); format: functional; details: MGC-803, 24 h, read-out: Activity
MGC-803 [5] = assay: Induction of apoptosis in human MGC803 cells assessed as late apoptotic cells at 8 uM after 24 hrs by AnnexinV/FITC-propidium iodide staining-based flow cytometry (reference value: 1.2%); format: functional
MGC-803 [6] = assay: Cytotoxicity against human MGC803 cells after 72 hrs by MTT assay; format: functional, cell-based; details: MGC-803, 72 h
MGC-803 [7] = assay: Induction of apoptosis in human MGC803 cells assessed as late apoptotic cells at 4 uM after 24 hrs by AnnexinV/FITC-propidium iodide staining-based flow cytometry (reference value: 1.2%); format: functional
PC-3 = assay: Cytotoxicity against human PC3 cells after 72 hrs by MTT assay; format: functional, cell-based; details: PC-3, 72 h
MGC-803 [8] = assay: Induction of apoptosis in human MGC803 cells assessed as late apoptotic cells at 2 uM after 24 hrs by AnnexinV/FITC-propidium iodide staining-based flow cytometry (reference value: 1.2%); format: functional
MGC-803 [9] = assay: Cell cycle arrest in human MGC803 cells assessed as accumulation at G2/M phase after 24 hrs by propidium iodide staining-based flow cytometry; format: functional
MGC-803 [10] = assay: Cell cycle arrest in human MGC803 cells assessed as accumulation at G0/G1 phase at 4 uM after 24 hrs by propidium iodide staining-based flow cytometry (reference value: 43.45%); format: functional
MGC-803 [11] = assay: Induction of apoptosis in human MGC803 cells assessed as early apoptotic cells at 8 uM after 24 hrs by AnnexinV/FITC-propidium iodide staining-based flow cytometry (reference value: 8.9%); format: functional
MGC-803 [12] = assay: Induction of apoptosis in human MGC803 cells assessed as necrotic cells at 8 uM after 24 hrs by AnnexinV/FITC-propidium iodide staining-based flow cytometry (reference value: 0.2%); format: functional
MGC-803 [13] = assay: Cell cycle arrest in human MGC803 cells assessed as accumulation at S phase at 2 uM after 24 hrs by propidium iodide staining-based flow cytometry (reference value: 26.67%); format: functional
[14] = Cytotoxicity against human EC109 cells after 72 hrs by MTT assay; format: functional, cell-based; details: ECa-109, 72 h
MGC-803 [15] = assay: Cell cycle arrest in human MGC803 cells assessed as accumulation at G2/M phase at 8 uM after 24 hrs by propidium iodide staining-based flow cytometry (reference value: 20.41%); format: functional
MGC-803 [16] = assay: Cell cycle arrest in human MGC803 cells assessed as accumulation at G2/M phase at 2 uM after 24 hrs by propidium iodide staining-based flow cytometry (reference value: 20.41%); format: functional
MGC-803 [17] = assay: Induction of apoptosis in human MGC803 cells assessed as early apoptotic cells at 2 uM after 24 hrs by AnnexinV/FITC-propidium iodide staining-based flow cytometry (reference value: 8.9%); format: functional
MGC-803 [18] = assay: Cell cycle arrest in human MGC803 cells assessed as accumulation at S phase at 4 uM after 24 hrs by propidium iodide staining-based flow cytometry (reference value: 26.67%); format: functional
MGC-803 [19] = assay: Cell cycle arrest in human MGC803 cells assessed as accumulation at G0/G1 phase at 2 uM after 24 hrs by propidium iodide staining-based flow cytometry (reference value: 43.45%); format: functional
MCF7 = assay: cells; details: Homo sapiens, MCF7, 72 h
Description: Cytotoxicity against human MCF7 cells after 72 hrs by MTT assay

MGC-803 [20] = assay: Induction of apoptosis in human MGC803 cells assessed as viable cells at 8 uM after 24 hrs by AnnexinV/FITC-propidium iodide staining-based flow cytometry (reference value: 89.6%); format: functional; details: MGC-803, 24 h, read-out: Activity
SMMC-7721 = assay: Cytotoxicity against human SMMC7721 cells after 72 hrs by MTT assay; format: functional, cell-based; details: SMMC-7721, 72 h
MGC-803 [21] = assay: Cell cycle arrest in human MGC803 cells assessed as accumulation at S phase at 8 uM after 24 hrs by propidium iodide staining-based flow cytometry (reference value: 26.67%); format: functional
MGC-803 [22] = assay: Cell cycle arrest in human MGC803 cells assessed as accumulation at G2/M phase at 4 uM after 24 hrs by propidium iodide staining-based flow cytometry (reference value: 20.41%); format: functional
MGC-803 [23] = assay: Induction of apoptosis in human MGC803 cells assessed as necrotic cells at 2 uM after 24 hrs by AnnexinV/FITC-propidium iodide staining-based flow cytometry (reference value: 0.2%); format: functional
MGC-803 [24] = assay: Cell cycle arrest in human MGC803 cells assessed as accumulation at G0/G1 phase at 8 uM after 24 hrs by propidium iodide staining-based flow cytometry (reference value: 43.45%); format: functional
[25] = Cytotoxicity against human MEL28 cells; format: functional, cell-based; details: SK-MEL-28
P388 = assay: Cytotoxicity against mouse P388 cells; format: functional, cell-based
HT-29 = assay: Cytotoxicity against human HT-29 cells; format: functional, cell-based
A549 = assay: Cytotoxicity against human A549 cells; format: functional, cell-based

CC(=O)O[C@H]1CC[C@@]2(C)C(=CC[C@@H]3[C@@H]2CC[C@]2(C)C(=C(/C#N)C(N)=O)/C(=C/c4ccc(Cl)cc4)C[C@@H]32)C1
Activity (MGC-803 [1]): 2% | Activity (MGC-803 [2]): 35.9% | viability at 4 µM (MGC-803 [3]): 52.7% | viability at 2 µM (MGC-803 [4]): 76.3% | Activity (MGC-803 [5]): 17.1% | IC50 (MGC-803 [6]): 1.54 µM | Activity (MGC-803 [7]): 9.4% | IC50 (PC-3): 11.5 µM | Activity (MGC-803 [8]): 4.4% | Activity (MGC-803 [9]): Dose-dependent effect | Activity (MGC-803 [10]): 28.84% | Activity (MGC-803 [11]): 80.9% | Activity (MGC-803 [12]): 0.1% | Activity (MGC-803 [13]): 15.68% | IC50 [14]: 5.56 µM | Activity (MGC-803 [15]): 56.91% | Activity (MGC-803 [16]): 33.68% | Activity (MGC-803 [17]): 18.7% | Activity (MGC-803 [18]): 19.94% | Activity (MGC-803 [19]): 48.61% | IC50 (MCF7): 3.85 µM | viability at 8 µM (MGC-803 [20]): 1.9% | IC50 (SMMC-7721): 3.9 µM | Activity (MGC-803 [21]): 19.09% | Activity (MGC-803 [22]): 49.43% | Activity (MGC-803 [23]): 0.5% | Activity (MGC-803 [24]): 21.6%

C=C1C[C@@H]2C/C=C/C(=O)C/C(C)=C\C=C\C(=O)O[C@H]([C@H](O)NC(=O)/C=C\C=C\C)C/C(C)=C/[C@H](C1)O2 [ZAMPANOLIDE]
IC50 [25]: 1 ng/mL (≈ 2.02 nM) | IC50 (P388): 1 ng/mL (≈ 2.02 nM) | IC50 (HT-29): 1 ng/mL (≈ 2.02 nM) | IC50 (A549): 1 ng/mL (≈ 2.02 nM)
